A word on the Tmax: it is the time at which the peak concentration occurs. By AUC(0-inf) is commonly meant the area under the concentration-time curve extrapolated to infinity. One may read the Cmax as the highest concentration seen after dosing.

Data set [1] can be described thus: Plasma pharmacokinetic comparison of zaleplon free base and HCl salt after single oral doses. Format: in vivo. The following applies: male beagle dogs; for Tmax / AUC(0-inf) / AUC(0-t) / Cmax: male, beagle, dog, plasma, po.
Data set [2] is described as follows: Pharmacokinetics of indiplon after oral administration of free base or HBr co-crystal suspension. Format: in vivo, male beagle dogs. The note with it: male dogs; for AUC(0-t) / Cmax / Tmax: single oral dose 5 mg free base/kg, 0.5% methylcellulose suspension. Here is the method:
The purpose of this study was to determine the pharmacokinetics of indiplon following oral administration of the free base and the HBr co-crystal in a suspension to male beagle dogs.
The test compounds used in the study were the free base and […] of indiplon. The compounds were stored at approximately 2-8° C.
Five male purebred beagles were transferred to the study from a stock colony. Each animal was identified with an individually numbered ear tattoo. The animals were acclimated for 5 days. At the time of dose administration, animals were young adult/adult age. During acclimation and the test period, animals were individually housed in wire-mesh enclosures with coated rod-bottom floors. Animals were not comingled for at least 24 hours after each dose administration to allow monitoring of any test compound-related effects. Animals had access to non-certified Canine Diet #5L03 (PMI Feeds, Inc.) ad libitum, except as specified for dose administration.
The test compounds were prepared in 0.5% methylcellulose. The target concentrations of the free base and HBr salt were 1.0 and 1.34 mg/mL (equivalent to 1 mg of the free base), respectively. The liquid suspensions were administered via oral gavage. Prior to removing the gavage tube, the tube was flushed with approximately 5 mL of water.
Blood (approximately 2 mL) was collected from a jugular vein via syringe and needle and transferred into tubes containing K2EDTA anticoagulant predose and at 0.5, 1, 2, 3, 4, 6, 8, 12, and 24 hours postdose. Blood was maintained on wet ice, in chilled Kryoracks, or at approximately 5° C. prior to centrifugation to obtain plasma. Centrifugation began within 1 hour of collection. Plasma was placed on dry ice prior to storage at approximately −70° C. Plasma samples, remaining test compounds, and remaining dose formulations were shipped on dry ice to the analysis site and stored at approximately −70° C. before and after analysis. Samples were analyzed using an LC/MS/MS method. Plasma concentration-time data for each dog and formulation were analyzed using a noncompartmental model assumption with WinNonlin, version 4.1 (Pharsight Corporation, Mountain View, Calif.). All calculations were based on the nominal times as actual sample collection times departed minimally from the schedule times.

Setting [3] is: 5 mg/kg, single oral dose 5.0 mg Free Base/kg, Mean of 5 dogs.
The mark [4] stands for this setting: 5 mg/kg, single oral dose 5.0 mg Free Base/kg, dog CLT-2.
Setting [5] is: 5 mg/kg, single oral dose 5.0 mg Free Base/kg, dog H0M004.
The mark [6] stands for this setting: 5 mg/kg, single oral dose 5.0 mg Free Base/kg, dog H1B108.
Where [7] appears, read: 5 mg/kg, single oral dose 5.0 mg Free Base/kg, dog TDR2.
Setting [8] is: 5 mg/kg, single oral dose 5.0 mg Free Base/kg, dog TKR-2.
Setting [9] is: Mean, N = 5, listed as HBr Salt Suspension.
Setting [10] is: dog CUPBEG, listed as HBr Salt Suspension.
The mark [11] stands for this setting: dog CUVBAT, listed as HBr Salt Suspension.
[12] abbreviates: dog CVRCVX, listed as HBr Salt Suspension.
[13] abbreviates: dog CVSCCL, listed as HBr Salt Suspension.
The mark [14] stands for this setting: 2.5 mg HCl Salt/kg, single oral dose 2.5 mg HCl Salt/kg, Mean of 5 dogs.
The mark [15] stands for this setting: 2.5 mg HCl Salt/kg, single oral dose 2.5 mg HCl Salt/kg, dog CLT-2.
Setting [16] is: 2.5 mg HCl Salt/kg, single oral dose 2.5 mg HCl Salt/kg, dog H0M004.
The mark [17] stands for this setting: 2.5 mg HCl Salt/kg, single oral dose 2.5 mg HCl Salt/kg, dog H1B108.
Where [18] appears, read: 2.5 mg HCl Salt/kg, single oral dose 2.5 mg HCl Salt/kg, dog TDR2.
The mark [19] stands for this setting: 2.5 mg HCl Salt/kg, single oral dose 2.5 mg HCl Salt/kg, dog TKR-2.
The mark [20] stands for this setting: dog CTZBCG, listed as Free Base Suspension.
Setting [21] is: dog CUPBEG, listed as Free Base Suspension.
Setting [22] is: dog CUVBAT, listed as Free Base Suspension.

Take `CCN(C(C)=O)c1cccc(-c2ccnc3c(C#N)cnn23)c1` [zaleplon free base, N-[3-(3-cyanopyrazolo[1,5-a]pyrimidin-7-yl)phenyl]-N-ethylacetamide, reference compound]: the Tmax was determined as 66 min in data set [1] (5 mg Free Base/kg, single oral dose 5.0 mg Free Base/kg, Mean of 5 dogs); 60 min in data set [1] (setting [4]); 60 min in data set [1] (setting [5]); 120 min in data set [1] (setting [6]); 30 min in data set [1] (setting [7]); 60 min in data set [1] (setting [8]). Moreover, the AUC(0-inf) in data set [1] (setting [3]) was found to be 6940 ng·h/mL; in data set [1] (setting [4]) it was 6860 ng·h/mL; in data set [1] (setting [5]), 7000 ng·h/mL; in data set [1] (setting [6]), 3760 ng·h/mL; in data set [1] (setting [7]) it was 2550 ng·h/mL; in data set [1] (setting [8]), 14500 ng·h/mL. The AUC(0-t) in data set [1] (setting [3]) was 6700 ng·h/mL; in data set [1] (setting [4]) it was 6840 ng·h/mL; in data set [1] (setting [5]), 6930 ng·h/mL; in data set [1] (setting [6]), 3760 ng·h/mL; in data set [1] (setting [7]), 2550 ng·h/mL; in data set [1] (setting [8]), 13400 ng·h/mL. Further, the Cmax in data set [1] (setting [3]) came to 1590 ng/mL; in data set [1] (setting [4]) it was 1850 ng/mL; in data set [1] (setting [5]), 1460 ng/mL; in data set [1] (setting [6]) it was 926 ng/mL; in data set [1] (setting [7]), 1100 ng/mL; in data set [1] (setting [8]), 2630 ng/mL.
Regarding `CC(=O)N(C)c1cccc(-c2ccnc3c(C(=O)c4cccs4)cnn23)c1` [indiplon HBr, N-methyl-N-{3-[3-(thiophene-2-carbonyl)-pyrazolo[1,5-a]pyrimidin-7-yl]-phenyl}acetamide HBr cocrystal], in data set [2] (oral 5 mg free base/kg), the “Tmax compared to the free base” value is listed as “not remarkably different”. Moreover, the “increase in the AUC versus free base” value in data set [2] (oral 5 mg free base/kg) is given as 226.8%. Also, the “increase in the maximum plasma concentrations achieved (Cmax) versus free base” value in data set [2] (oral 5 mg free base/kg) is reported as 69.7%. In addition, the “test animals with pharmaceutical profile superior to the corresponding free base” value in data set [2] (oral 5 mg free base/kg, cross-over) is given as 5 out of 5. The AUC(0-t) in data set [2] (setting [9]) came to 567 ng·h/mL; in data set [2] (dog CTZBCG, listed as HBr Salt Suspension), 1130 ng·h/mL; in data set [2] (setting [10]) it was 429 ng·h/mL; in data set [2] (setting [11]), 291 ng·h/mL; in data set [2] (setting [12]) it was 258 ng·h/mL; in data set [2] (setting [13]) it was 725 ng·h/mL. Further, the Cmax came to 314 ng/mL in data set [2] (setting [9]); 253 ng/mL in data set [2] (setting [10]); 309 ng/mL in data set [2] (setting [11]); 227 ng/mL in data set [2] (setting [12]); 270 ng/mL in data set [2] (setting [13]); 513 ng/mL in data set [2] (male, beagle, dog, plasma, po, 5 mg/kg, dog CTZBCG, read-out: Cmax). Also, the time to peak (Tmax) turned out to be 48 min in data set [2] (setting [9]); 120 min in data set [2] (setting [13]); 30 min in data set [2] (male, beagle, dog, plasma, po, 5 mg/kg, dog CTZBCG, read-out: Tmax); 30 min in data set [2] (male, beagle, dog, plasma, po, 5 mg/kg, dog CUPBEG, read-out: Tmax).
Consider `CCN(C(C)=O)c1cccc(-c2ccnc3c(C#N)cnn23)c1.Cl` [zaleplon HCl, Zaleplon Hydrochloride], for which, in data set [1] (oral, calculated on a mg/kg dosing basis), the “Cmax compared with the free base” value is “essentially equivalent”. Also, the AUC(0-inf) in data set [1] (setting [14]) came out at 2320 ng·h/mL; in data set [1] (setting [15]), 1820 ng·h/mL; in data set [1] (setting [16]), 2010 ng·h/mL; in data set [1] (setting [17]) it was 1360 ng·h/mL; in data set [1] (setting [18]) it was 2650 ng·h/mL; in data set [1] (setting [19]), 3760 ng·h/mL. Also, the AUC(0-t) in data set [1] (setting [14]) stood at 2310 ng·h/mL; in data set [1] (setting [15]), 1820 ng·h/mL; in data set [1] (setting [16]), 2010 ng·h/mL; in data set [1] (setting [17]), 1360 ng·h/mL; in data set [1] (setting [18]), 2650 ng·h/mL; in data set [1] (setting [19]), 3720 ng·h/mL. The maximum concentration (Cmax) in data set [1] (setting [14]) turned out to be 790 ng/mL; in data set [1] (setting [15]), 1010 ng/mL; in data set [1] (setting [16]) it was 642 ng/mL; in data set [1] (setting [17]), 587 ng/mL; in data set [1] (setting [18]), 820 ng/mL; in data set [1] (setting [19]), 896 ng/mL. The time to peak (Tmax) is 33 min in data set [1] (setting [14]); 15 min in data set [1] (setting [15]); 30 min in data set [1] (setting [16]); 60 min in data set [1] (setting [17]); 30 min in data set [1] (setting [18]); 30 min in data set [1] (setting [19]).
For the compound `CC(=O)N(C)c1cccc(-c2ccnc3c(C(=O)c4cccs4)cnn23)c1` [Indiplon free base, N-methyl-N-{3-[3-(thiophene-2-carbonyl)-pyrazolo[1,5-a]pyrimidin-7-yl]-phenyl}acetamide, reference compound], the AUC(0-t) in data set [2] (Mean, N = 5, listed as Free Base Suspension) is 250 ng·h/mL; in data set [2] (setting [20]), 408 ng·h/mL; in data set [2] (setting [21]), 160 ng·h/mL; in data set [2] (setting [22]), 125 ng·h/mL; in data set [2] (dog CVSCCL, listed as Free Base Suspension) it was 277 ng·h/mL; in data set [2] (male, beagle, dog, plasma, po, 5 mg/kg, dog CVRCVX, read-out: AUC0-t), 279 ng·h/mL. Further, the Cmax in data set [2] (setting [20]) was determined as 266 ng/mL; in data set [2] (setting [21]) it was 106 ng/mL; in data set [2] (setting [22]) it was 101 ng/mL; in data set [2] (male, beagle, dog, plasma, po, 5 mg/kg, Mean, N = 5, read-out: Cmax) it was 185 ng/mL; in data set [2] (male, beagle, dog, plasma, po, 5 mg/kg, dog CVRCVX, read-out: Cmax), 212 ng/mL; in data set [2] (male, beagle, dog, plasma, po, 5 mg/kg, dog CVSCCL, read-out: Cmax), 240 ng/mL. Further, the Tmax in data set [2] (setting [21]) is 60 min; in data set [2] (male, beagle, dog, plasma, po, 5 mg/kg, Mean, N = 5, read-out: Tmax) it was 36 min; in data set [2] (male, beagle, dog, plasma, po, 5 mg/kg, dog CUVBAT, read-out: Tmax) it was 30 min; in data set [2] (male, beagle, dog, plasma, po, 5 mg/kg, dog CVRCVX, read-out: Tmax) it was 30 min.

These data come from patent US20080045547A1, “Salts And Co-Crystals of Pyrazolopyrimidine Compounds, Compositions Thereof And Methods For Their Production And Use” (priority 2006, published 2008).
